{"source": "paper PMC12373499", "about": "(Nature Metabolism, 2025)", "molecules": {"B1": {"name": "GIPR (protein)", "chain": "RAETGSKGQTAGELYQRWERYRRECQETLAAAEPPSGLACNGSFDMYVCWDYAAPNATARASCPWYLPWHHHVAAGFVLRQCGSDGQWGLWRDHTQCENPEKNEAFLDQRLILERLQVMYTVGYSLSLATLLLALLILSLFRRLHCTRNYIHINLFTSFMLRAAAILSRDRLLPRPGPYLGDQALALWNQALAACRTAQIVTQYCVGANYTWLLVEGVYLHSLLVLVGGSEEGHFRYYLLLGWGAPALFVIPWVIVRYLYENTQCWERNEVKAIWWIIRTPILMTILINFLIFIRILGILLSKLRTRQMRCRDYRLRLARSTLTLVPLLGVHEVVFAPVTEEQARGALRFAKLGFEIFLSSFQGFLVSVLYCFINKEVQSEIRRGWHHCRLRRSLGEEQRQLPERAFRALPSGSGPGEVPTSRGLSSGTLPGPGNEASRELESYC"}}, "key": {"mGLP1R": {"molecular_target": "T1, mGLP1R (Mus musculus, UniProt O35659)", "T1 construct": "expressed in transfected cells; host or cells: AD293 cells, transient transfection (Lipofectamine 2000)", "T1 sequence (O35659 22-463)": "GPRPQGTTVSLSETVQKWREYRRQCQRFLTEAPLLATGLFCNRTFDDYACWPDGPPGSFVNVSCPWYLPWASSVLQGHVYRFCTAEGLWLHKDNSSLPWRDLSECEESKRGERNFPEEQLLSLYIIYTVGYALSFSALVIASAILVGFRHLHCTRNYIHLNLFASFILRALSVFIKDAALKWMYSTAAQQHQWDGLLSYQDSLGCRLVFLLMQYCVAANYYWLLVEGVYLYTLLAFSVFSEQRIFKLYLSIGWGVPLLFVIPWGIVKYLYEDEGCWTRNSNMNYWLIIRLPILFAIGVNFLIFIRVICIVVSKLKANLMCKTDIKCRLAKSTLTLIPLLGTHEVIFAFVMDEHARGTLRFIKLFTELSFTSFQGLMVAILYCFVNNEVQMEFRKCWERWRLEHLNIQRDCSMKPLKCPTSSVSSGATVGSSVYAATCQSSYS", "assay": "HTRF cAMP assay in transiently transfected AD293 cells", "format": "cell-based", "settings": "30 min 37 °C, n = 4 independent repeats, Extended Data Table 1, read-out: mGLP1R EC50 best-fit"}, "hGIPR": {"molecular_target": "T2, hGIPR (Homo sapiens, UniProt P48546)", "T2 construct": "expressed in transfected cells; host or cells: AD293 cells, transient transfection (Lipofectamine 2000)", "T2 sequence (P48546 22-466)": "B1 chain", "assay": "HTRF cAMP assay in transiently transfected AD293 cells", "format": "cell-based", "settings": "30 min 37 °C, n = 4 independent repeats, Extended Data Table 1, read-out: hGIPR EC50 best-fit", "protocol": "(§1) AD293 cells (RRID:CVCL_9804) were transiently transfected 24 h before the assay in six-well plates with plasmids encoding wild-type hGLP1R, mGLP1R, hGIPR or mGIPR using Lipofectamine 2000. AD293 cells were authenticated at source using STR profiling. Cells were detached and treated with a range of agonist concentrations in serum-free DMEM + 0.1% BSA for 30 min at 37 °C in 96-well plates, followed by the addition of lysis buffer 2 (Cisbio) at a 1:2 ratio. Lysates were further diluted 1:10 to avoid spectral interference from the higher concentrations of fluorescent ligands in the HTRF assay, and the concentration of cAMP was determined after the addition of cAMP Dynamic detection reagents (Cisbio)."}, "mGIPR": {"molecular_target": "T3, mGIPR (Mus musculus, UniProt Q0P543)", "T3 construct": "expressed in transfected cells; host or cells: AD293 cells, transient transfection (Lipofectamine 2000)", "T3 sequence (Q0P543 19-460)": "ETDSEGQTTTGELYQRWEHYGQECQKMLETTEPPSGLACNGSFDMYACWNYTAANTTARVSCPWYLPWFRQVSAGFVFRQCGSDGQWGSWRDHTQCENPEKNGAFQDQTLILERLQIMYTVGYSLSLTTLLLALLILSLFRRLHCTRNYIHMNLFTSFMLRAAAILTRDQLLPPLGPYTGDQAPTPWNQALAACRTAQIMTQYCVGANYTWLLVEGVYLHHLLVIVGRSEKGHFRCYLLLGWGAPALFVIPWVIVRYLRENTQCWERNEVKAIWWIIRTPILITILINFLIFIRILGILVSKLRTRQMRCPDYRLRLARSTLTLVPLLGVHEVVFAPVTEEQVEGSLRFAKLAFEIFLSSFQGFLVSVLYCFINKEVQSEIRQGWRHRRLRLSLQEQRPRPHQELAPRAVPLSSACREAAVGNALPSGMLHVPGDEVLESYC", "assay": "HTRF cAMP assay in transiently transfected AD293 cells", "format": "cell-based", "settings": "cAMP, AD293 cells, 30 min 37 °C, n = 4 independent repeats; Extended Data Table 1; read-out: mGIPR EC50 best-fit", "protocol": "as §1"}, "GIP(1-42)": {"molecular_target": "T4, GIP(1-42) (Homo sapiens, UniProt P09681)", "T4 chain": "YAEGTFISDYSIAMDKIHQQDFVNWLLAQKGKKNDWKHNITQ", "assay": "competition"}}, "note": "Where “and” joins values, the source holds several entries; their conditions need not be identical. Equal values may be shown once."}
{"molecule": "CC[C@H](C)[C@H](NC(=O)[C@H](CC(C)C)NC(=O)[C@H](Cc1c[nH]c2ccccc12)NC(=O)[C@H](CCC(N)=O)NC(=O)[C@@H](NC(=O)[C@H](Cc1ccccc1)NC(=O)[C@H](C)NC(=O)[C@H](CCCCNC(=O)COCCOCCNC(=O)COCCOCCNC(=O)CC[C@H](NC(=O)CCCCCCCCCCCCCCCCCCC(=O)O)C(=O)O)NC(=O)[C@H](CCC(N)=O)NC(=O)[C@H](C)NC(=O)[C@@H](NC(=O)[C@H](CCCCN)NC(=O)[C@H](CC(=O)O)NC(=O)[C@H](CC(C)C)NC(=O)C(C)(C)NC(=O)[C@@H](NC(=O)[C@H](CO)NC(=O)[C@H](Cc1ccc(O)cc1)NC(=O)[C@H](CC(=O)O)NC(=O)[C@H](CO)NC(=O)[C@@H](NC(=O)[C@H](Cc1ccccc1)NC(=O)[C@@H](NC(=O)CNC(=O)[C@H](CCC(=O)O)NC(=O)C(C)(C)NC(=O)[C@@H](N)Cc1ccc(O)cc1)[C@@H](C)O)[C@@H](C)O)[C@@H](C)CC)[C@@H](C)CC)C(C)C)C(=O)N[C@@H](C)C(=O)NCC(=O)NCC(=O)N1CCC[C@H]1C(=O)N[C@@H](CO)C(=O)N[C@@H](CO)C(=O)NCC(=O)N[C@@H](C)C(=O)N1CCC[C@H]1C(=O)N1CCC[C@H]1C(=O)N1CCC[C@H]1C(=O)N[C@@H](CO)C(N)=O", "note": "[tirzepatide]", "values": [{"measurement": "EC50", "setting": "mGLP1R", "value": 29.4, "unit": "nM"}, {"measurement": "EC50", "setting": "hGIPR", "value": 0.641, "unit": "nM"}, {"measurement": "EC50", "setting": "mGIPR", "value": 112, "unit": "nM"}]}
{"molecule": "B1", "values": [{"measurement": "Ki", "setting": "GIP(1-42)", "value": "13.9 nM and 9.38 nM"}]}
